Laboratory results published in ChEMBL document CHEMBL1201862, “PubChem BioAssay data set” (2004).
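Compound exposure: 48 hours, 5 concentrations, 96-well plates. GI50: concentration for 50% inhibition of growth.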 Calls of active or inactive are those of the source. No stated cut-off is given here; in the data, active = GI50 up to about 1.1 µM and inactive = higher.

Key:
Test in all cases: DTP human tumour cell line panel, 48 h
HT-29 = test system: HT-29
SNB-75 = test system: SNB-75
HOP-62 = test system: HOP-62
HCT-116 = test system: HCT-116
SF-539 = test system: SF-539
HL-60 = test system: HL-60
UO-31 = test system: UO-31
SF-295 = test system: SF-295
IGROV-1 = test system: IGROV-1
SF-268 = test system: SF-268
OVCAR-3 = test system: OVCAR-3
NCI-H23 = test system: NCI-H23
CCRF-CEM = test system: CCRF-CEM
SW-620 = test system: SW-620
UACC-62 = test system: UACC-62
LOX IMVI = test system: LOX IMVI
SNB-19 = test system: SNB-19

| SMILES | GI50 (HT-29) | GI50 (SNB-75) | GI50 (HOP-62) | GI50 (HCT-116) | GI50 (SF-539) | GI50 (HL-60) | GI50 (UO-31) | GI50 (SF-295) | GI50 (IGROV-1) | GI50 (SF-268) | GI50 (OVCAR-3) | GI50 (NCI-H23) | GI50 (CCRF-CEM) | GI50 (SW-620) | GI50 (UACC-62) | GI50 (LOX IMVI) | GI50 (SNB-19) |
| --- | --- | --- | --- | --- | --- | --- | --- | --- | --- | --- | --- | --- | --- | --- | --- | --- | --- |
| C[N+]1(C)C/C(=C\c2ccccc2)C(=O)/C(=C/c2ccccc2)C1 | > 100 µM (inactive) | > 100 µM (inactive) | > 100 µM (inactive) | > 100 µM (inactive) | > 100 µM (inactive) | > 100 µM (inactive) | > 100 µM (inactive) | > 100 µM (inactive) | > 100 µM (inactive) | > 100 µM (inactive) | > 100 µM (inactive) | > 100 µM (inactive) | 49 µM (inactive) | – | – | – | – |
| O=C1c2ccccc2C2(Br)C(=O)c3ccccc3C12 (stereo unspecified) | > 100 µM (inactive) | > 100 µM (inactive) | > 100 µM (inactive) | – | > 100 µM (inactive) | > 100 µM (inactive) | > 100 µM (inactive) | > 100 µM (inactive) | > 100 µM (inactive) | > 100 µM (inactive) | > 100 µM (inactive) | > 100 µM (inactive) | 42.4 µM (inactive) | > 100 µM (inactive) | > 100 µM (inactive) | 11.1 µM (inactive) | – |
| c1ccc(C2CC(c3ccc4ccccc4c3)=Nc3ccccc3S2)cc1 (stereo unspecified) | 17.1 µM (inactive) | 15.6 µM (inactive) | 17.1 µM (inactive) | 14.8 µM (inactive) | 16.7 µM (inactive) | 19.5 µM (inactive) | 12.5 µM (inactive) | 17.9 µM (inactive) | 22.8 µM (inactive) | 17 µM (inactive) | 17.3 µM (inactive) | 14.8 µM (inactive) | 26.1 µM (inactive) | 18.8 µM (inactive) | 16.9 µM (inactive) | 15.7 µM (inactive) | 19.1 µM (inactive) |
| CCOC(=O)C1=C(C)N(Cc2ccccc2)C(C)=C(C(=O)OCC)C1c1ccccc1O | 41.4 µM (inactive) | 27.5 µM (inactive) | 31.5 µM (inactive) | 29.4 µM (inactive) | 27.7 µM (inactive) | 26.6 µM (inactive) | 32.1 µM (inactive) | 33.1 µM (inactive) | 25.5 µM (inactive) | 32.4 µM (inactive) | 25.2 µM (inactive) | 24 µM (inactive) | 27 µM (inactive) | 39.9 µM (inactive) | 18.1 µM (inactive) | 17.9 µM (inactive) | 43.2 µM (inactive) |
| Cc1nn(C(=O)CC(=O)Nc2ccccc2Cl)c(C)c1/N=N/c1ccccc1Cl | > 100 µM (inactive) | 82 µM (inactive) | > 100 µM (inactive) | > 100 µM (inactive) | 80.9 µM (inactive) | > 100 µM (inactive) | > 100 µM (inactive) | > 100 µM (inactive) | > 100 µM (inactive) | 85.7 µM (inactive) | > 100 µM (inactive) | > 100 µM (inactive) | > 100 µM (inactive) | > 100 µM (inactive) | > 100 µM (inactive) | > 100 µM (inactive) | > 100 µM (inactive) |
| CCCS(=O)(=O)/C(=C(\c1ccc(Br)cc1)S(=O)(=O)CCC)c1ccc(Br)cc1 | > 10 µM (inactive) | > 10 µM (inactive) | > 10 µM (inactive) | > 10 µM (inactive) | > 10 µM (inactive) | > 10 µM (inactive) | > 10 µM (inactive) | > 10 µM (inactive) | > 10 µM (inactive) | > 10 µM (inactive) | > 10 µM (inactive) | > 10 µM (inactive) | > 10 µM (inactive) | > 10 µM (inactive) | > 10 µM (inactive) | > 10 µM (inactive) | > 10 µM (inactive) |
| CC(=O)O/C(C)=C\C(=O)O/N=C(\N)c1ccc(C)cc1 | 35.6 µM (inactive) | 19.2 µM (inactive) | 33.1 µM (inactive) | 19.9 µM (inactive) | 20.6 µM (inactive) | 21.1 µM (inactive) | 61.1 µM (inactive) | 35.2 µM (inactive) | 28.3 µM (inactive) | 29.8 µM (inactive) | 34.7 µM (inactive) | 22.2 µM (inactive) | 17.3 µM (inactive) | 39.4 µM (inactive) | 22.7 µM (inactive) | 34.4 µM (inactive) | 43.7 µM (inactive) |
| CN(CCN(C)C(=O)CCn1ccc(=O)[nH]c1=O)C(=O)CCn1ccc(=O)[nH]c1=O | > 100 µM (inactive) | 22.4 µM (inactive) | > 100 µM (inactive) | > 100 µM (inactive) | > 100 µM (inactive) | > 100 µM (inactive) | > 100 µM (inactive) | > 100 µM (inactive) | > 100 µM (inactive) | > 100 µM (inactive) | > 100 µM (inactive) | > 100 µM (inactive) | > 100 µM (inactive) | > 100 µM (inactive) | > 100 µM (inactive) | > 100 µM (inactive) | > 100 µM (inactive) |
| O=C1CC(C[C@H](O)C2CCCCC2O)CC(=O)N1Cc1ccccc1 (stereo partly specified) | > 100 µM (inactive) | > 100 µM (inactive) | > 100 µM (inactive) | > 100 µM (inactive) | > 100 µM (inactive) | > 100 µM (inactive) | > 100 µM (inactive) | > 100 µM (inactive) | > 100 µM (inactive) | > 100 µM (inactive) | > 100 µM (inactive) | > 100 µM (inactive) | > 100 µM (inactive) | > 100 µM (inactive) | > 100 µM (inactive) | > 100 µM (inactive) | > 100 µM (inactive) |
| CCCC(=O)c1ccc(=O)n(C)c1 | > 100 µM (inactive) | > 100 µM (inactive) | > 100 µM (inactive) | > 100 µM (inactive) | > 100 µM (inactive) | > 100 µM (inactive) | > 100 µM (inactive) | > 100 µM (inactive) | > 100 µM (inactive) | > 100 µM (inactive) | > 100 µM (inactive) | > 100 µM (inactive) | > 100 µM (inactive) | > 100 µM (inactive) | > 100 µM (inactive) | > 100 µM (inactive) | > 100 µM (inactive) |
| O=C(O)c1oc2ccc([N+](=O)[O-])c3c2c1CCC3 | > 100 µM (inactive) | 67.6 µM (inactive) | > 100 µM (inactive) | > 100 µM (inactive) | > 100 µM (inactive) | > 100 µM (inactive) | > 100 µM (inactive) | > 100 µM (inactive) | – | 74.3 µM (inactive) | > 100 µM (inactive) | > 100 µM (inactive) | – | > 100 µM (inactive) | – | > 100 µM (inactive) | > 100 µM (inactive) |
| O=C(CC(=O)N1N=C(N2c3ccccc3Sc3ccccc32)CC1c1ccccc1)Nc1ccc(Cl)cc1 (stereo unspecified) | > 100 µM (inactive) | > 100 µM (inactive) | > 100 µM (inactive) | > 100 µM (inactive) | > 100 µM (inactive) | > 10 µM (inactive) | > 100 µM (inactive) | > 100 µM (inactive) | > 100 µM (inactive) | > 100 µM (inactive) | > 100 µM (inactive) | > 100 µM (inactive) | > 10 µM (inactive) | > 100 µM (inactive) | > 100 µM (inactive) | > 100 µM (inactive) | > 100 µM (inactive) |
| c1ccc2c(c1)oc1ccc3nsnc3c12 | > 100 µM (inactive) | 53.3 µM (inactive) | – | > 100 µM (inactive) | > 100 µM (inactive) | > 100 µM (inactive) | > 100 µM (inactive) | > 100 µM (inactive) | > 100 µM (inactive) | > 100 µM (inactive) | > 100 µM (inactive) | > 100 µM (inactive) | > 100 µM (inactive) | > 100 µM (inactive) | > 100 µM (inactive) | > 10 µM (inactive) | > 100 µM (inactive) |
| COc1cc(C(=O)C/C(CCC(=O)Nc2ccccc2[N+](=O)[O-])=N\NC(=O)CC#N)ccc1O | > 100 µM (inactive) | 49.1 µM (inactive) | > 100 µM (inactive) | – | > 100 µM (inactive) | > 100 µM (inactive) | > 100 µM (inactive) | > 100 µM (inactive) | > 100 µM (inactive) | > 100 µM (inactive) | > 100 µM (inactive) | > 100 µM (inactive) | > 100 µM (inactive) | > 100 µM (inactive) | > 100 µM (inactive) | > 100 µM (inactive) | > 100 µM (inactive) |
| COC(=O)C1(C(C)C)CCc2c(OC)ccc(OC)c2C1=O (stereo unspecified) | > 100 µM (inactive) | – | > 100 µM (inactive) | > 100 µM (inactive) | > 100 µM (inactive) | > 100 µM (inactive) | > 100 µM (inactive) | > 100 µM (inactive) | > 100 µM (inactive) | > 100 µM (inactive) | > 100 µM (inactive) | – | > 100 µM (inactive) | > 100 µM (inactive) | 79.8 µM (inactive) | > 100 µM (inactive) | > 100 µM (inactive) |
| O=C1OC2CCCC[C@@H]2C2C[C@]34CCCCC3[C@@H](C(=O)O4)C12 (stereo partly specified) | > 100 µM (inactive) | > 100 µM (inactive) | > 100 µM (inactive) | > 100 µM (inactive) | > 100 µM (inactive) | – | > 100 µM (inactive) | > 100 µM (inactive) | – | > 100 µM (inactive) | > 100 µM (inactive) | > 100 µM (inactive) | > 100 µM (inactive) | > 100 µM (inactive) | > 100 µM (inactive) | > 100 µM (inactive) | > 100 µM (inactive) |
| O=C(Nc1nc2ncn(CC(COc3ccccc3)OC(=O)c3ccccc3)c2c(=O)[nH]1)c1ccccc1 (stereo unspecified) | > 100 µM (inactive) | > 100 µM (inactive) | > 100 µM (inactive) | > 100 µM (inactive) | > 100 µM (inactive) | < 0.01 µM (active) | > 100 µM (inactive) | 48 µM (inactive) | > 100 µM (inactive) | – | > 100 µM (inactive) | – | – | > 100 µM (inactive) | > 100 µM (inactive) | > 100 µM (inactive) | > 100 µM (inactive) |
